Results as given in US20240116985A1, “STAPLED PEPTIDES AND METHODS THEREOF” (priority 2020, published 2024).

What was measured:
[1] = target: T1, full-length beta-Catenin (Uniprot ID P35222) (Homo sapiens, UniProt P35222); test: Fluorescence polarization IC50 (beta-catenin / 5FAM-TCF4 10-53 competition); type: binding; settings: fluorescence polarization; read-out: beta-Catenin FP IC50
T1 construct: 10 nM full-length beta-Catenin (Uniprot ID P35222)
T1 sequence (P35222 1-781): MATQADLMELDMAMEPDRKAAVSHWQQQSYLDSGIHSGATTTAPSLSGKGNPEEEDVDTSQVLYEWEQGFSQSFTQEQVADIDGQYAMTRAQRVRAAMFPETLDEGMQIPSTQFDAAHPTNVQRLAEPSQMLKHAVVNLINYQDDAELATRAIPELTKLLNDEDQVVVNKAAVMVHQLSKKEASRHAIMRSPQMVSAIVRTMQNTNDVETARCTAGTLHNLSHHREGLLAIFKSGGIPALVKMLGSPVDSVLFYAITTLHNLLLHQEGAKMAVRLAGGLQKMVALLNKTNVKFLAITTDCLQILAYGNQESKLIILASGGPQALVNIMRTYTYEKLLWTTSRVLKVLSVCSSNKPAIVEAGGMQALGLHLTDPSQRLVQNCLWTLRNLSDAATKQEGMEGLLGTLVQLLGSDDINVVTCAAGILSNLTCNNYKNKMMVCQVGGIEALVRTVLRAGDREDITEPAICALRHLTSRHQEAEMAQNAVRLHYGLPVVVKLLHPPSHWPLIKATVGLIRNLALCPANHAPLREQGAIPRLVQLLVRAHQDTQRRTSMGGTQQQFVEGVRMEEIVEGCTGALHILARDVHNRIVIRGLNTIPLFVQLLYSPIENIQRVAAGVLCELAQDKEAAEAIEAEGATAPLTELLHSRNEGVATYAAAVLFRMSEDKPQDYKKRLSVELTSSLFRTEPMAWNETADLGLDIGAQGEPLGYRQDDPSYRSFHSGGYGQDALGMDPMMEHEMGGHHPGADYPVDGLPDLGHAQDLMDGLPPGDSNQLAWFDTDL

[2] = target: T2, beta-catenin/TCF4 engagement (Homo sapiens, UniProt P35222); test: Nano-BRET target engagement assay (B-cat-Halo & TCF4-Luc in HEK293 cells); type: cell-based; settings: absolute IC50; read-out: NanoBRET Abs IC50
T2 construct: expressed in transfected cells; host or cells: HEK293
T2 sequence (P35222 1-781): T1 sequence (P35222 1-781)

| Compound | IC50 [1] | IC50 [2] |
| --- | --- | --- |
| CC(=O)NCCCC[C@@H]1NC(=O)[C@H](Cc2ccccc2)NC(=O)[C@H](C)NC(=O)[C@H](C)NC(=O)[C@H](Cc2cccc(C(=O)O)c2)NC(=O)[C@H](CC(=O)O)NC(=O)C2(CCCC=CCCCOC(=O)N3CC[C@@](C(=O)N[C@@H](Cc4ccccc4C(F)(F)F)C(=O)N[C@@H](Cc4csc5ccccc45)C(=O)N[C@@H](CCC(=O)N4CCOCC4)C(N)=O)(C3)NC1=O)CCCC=CC[C@]1(CCCN1C(C)=O)C(=O)N[C@@H](CC(=O)O)C(=O)N[C@@H](CC(C)(C)C)C(=O)N2 (stereo partly drawn) [I-2548, Ac-PL3-Asp-Npg-B5-Asp-3COOHF-Ala-Ala-Phe-AcLys-PyrS2-2F3MeF-BztA-MorphGln-NH2] | 11 nM | 3600 nM |
| CCCC[C@@H]1NC(=O)[C@H](Cc2ccccc2)NC(=O)[C@H](C)NC(=O)C(C)(C)NC(=O)[C@H](Cc2cccc(C(=O)O)c2)NC(=O)[C@H](CC(=O)O)NC(=O)C2(CCCC=CCCCOC(=O)N3CC[C@@](C(=O)N[C@@H](Cc4ccsc4)C(=O)N[C@@H](Cc4csc5ccccc45)C(=O)N[C@@H](CCC(=O)N(C)C)C(N)=O)(C3)NC1=O)CCCC=CC[C@]1(CCCN1C(C)=O)C(=O)N[C@@H](CC(=O)O)C(=O)N[C@@H](CC(C)(C)C)C(=O)N2 (stereo partly drawn) [I-2551, Ac-PL3-Asp-Npg-B5-Asp-3COOHF-Aib-Ala-Phe-nLeu-PyrS2-3Thi-BztA-[NMe2]GlnR-NH2] | 8 nM | 9800 nM |
| CCCC[C@@H]1NC(=O)[C@H](Cc2ccccc2)NC(=O)[C@H](C)NC(=O)C(C)(C)NC(=O)[C@H](Cc2cccc(C(=O)O)c2)NC(=O)[C@H](CC(=O)O)NC(=O)C2(CCCC=CCCCOC(=O)N3CC[C@@](C(=O)N[C@@H](Cc4ccsc4)C(=O)N[C@@H](Cc4csc5ccccc45)C(=O)N[C@@H](CCC(=O)NCC)C(N)=O)(C3)NC1=O)CCCC=CC[C@]1(CCCN1C(C)=O)C(=O)N[C@@H](CC(=O)O)C(=O)N[C@@H](CC(C)(C)C)C(=O)N2 (stereo partly drawn) [I-2552, Ac-PL3-Asp-Npg-B5-Asp-3COOHF-Aib-Ala-Phe-nLeu-PyrS2-3Thi-BztA-NHEt]GlnR-NH2] | 12 nM | 10400 nM |
| CCCC[C@@H]1NC(=O)[C@H](Cc2ccccc2)NC(=O)[C@H](C)NC(=O)C(C)(C)NC(=O)[C@H](Cc2cccc(C(=O)O)c2)NC(=O)[C@H](CC(=O)O)NC(=O)C2(CCCC=CCCCOC(=O)N3CC[C@@](C(=O)N[C@@H](Cc4ccsc4)C(=O)N[C@@H](Cc4csc5ccccc45)C(=O)N[C@@H](CCC(=O)N4CCOCC4)C(N)=O)(C3)NC1=O)CCCC=CC[C@]1(CCCN1C(C)=O)C(=O)N[C@@H](CC(=O)O)C(=O)N[C@@H](CC(C)(C)C)C(=O)N2 (stereo partly drawn) [I-2553, Ac-PL3-Asp-Npg-B5-Asp-3COOHF-Aib-Ala-Phe-nLeu-PyrS2-3Thi-BztA-[Morph]GlnR-NH2] | 10 nM | 8200 nM |
| CCCC[C@@H]1NC(=O)[C@H](Cc2ccccc2)NC(=O)[C@H](C)NC(=O)C(C)(C)NC(=O)[C@H](Cc2cccc(C(=O)O)c2)NC(=O)[C@H](CC(=O)O)NC(=O)C2(CCCC=CCCCOC(=O)N3CC[C@@](C(=O)N[C@@H](Cc4ccsc4)C(=O)N[C@@H](Cc4csc5ccccc45)C(=O)N[C@@H](CCC(=O)N4CCC(C(F)(F)F)CC4)C(N)=O)(C3)NC1=O)CCCC=CC[C@]1(CCCN1C(C)=O)C(=O)N[C@@H](CC(=O)O)C(=O)N[C@@H](CC(C)(C)C)C(=O)N2 (stereo partly drawn) [I-2557, Ac-PL3-Asp-Npg-B5-Asp-3COOHF-Aib-Ala-Phe-nLeu-PyrS2-3Thi-BztA-4F3CPip]GlnR-NH2] | 29 nM | 19600 nM |
| CC[C@@H]1NC(=O)[C@H](Cc2ccccc2)NC(=O)[C@H](C)NC(=O)C(C)(C)NC(=O)[C@H](Cc2cccc(C(=O)O)c2)NC(=O)[C@H](CC(=O)O)NC(=O)C2(CCCC=CCCCOC(=O)N3CC[C@@](C(=O)N[C@@H](Cc4ccsc4)C(=O)N[C@@H](Cc4csc5ccccc45)C(=O)N[C@@H](CCC(=O)N4CCOCC4)C(N)=O)(C3)NC1=O)CCCC=CC[C@]1(CCCN1C(C)=O)C(=O)N[C@@H](CC(=O)O)C(=O)N[C@@H](CC(C)(C)C)C(=O)N2 (stereo partly drawn) [I-2558, Ac-PL3-Asp-Npg-B5-Asp-3COOHF-Aib-Ala-Phe-Abu-PyrS2-3Thi-BztA-[Morph]GlnR-NH2] | 7 nM | 14700 nM |
| CC[C@@H]1NC(=O)[C@H](Cc2ccccc2)NC(=O)[C@H](C)NC(=O)C(C)(C)NC(=O)[C@H](Cc2cccc(C(=O)O)c2)NC(=O)[C@H](CC(=O)O)NC(=O)C2(CCCC=CCCCOC(=O)N3CC[C@@](C(=O)N[C@@H](Cc4ccsc4)C(=O)N[C@@H](Cc4csc5ccccc45)C(=O)N[C@@H](CCC(=O)N4CCC(N5CCCCC5)CC4)C(N)=O)(C3)NC1=O)CCCC=CC[C@]1(CCCN1C(C)=O)C(=O)N[C@@H](CC(=O)O)C(=O)N[C@@H](CC(C)(C)C)C(=O)N2 (stereo partly drawn) [I-2560, Ac-PL3-Asp-Npg-B5-Asp-3COOHF-Aib-Ala-Phe-Abu-PyrS2-3Thi-BztA-[4Pippip]GlnR-NH2] | 9 nM | 19300 nM |
| CC[C@@H]1NC(=O)[C@H](Cc2ccccc2)NC(=O)[C@H](C)NC(=O)C(C)(C)NC(=O)[C@H](Cc2cccc(C(=O)O)c2)NC(=O)[C@H](CC(=O)O)NC(=O)C2(CCCC=CCCCOC(=O)N3CC[C@@](C(=O)N[C@@H](Cc4ccsc4)C(=O)N[C@@H](Cc4csc5ccccc45)C(=O)N[C@@H](CCC(=O)N4CCN(C(C)=O)CC4)C(N)=O)(C3)NC1=O)CCCC=CC[C@]1(CCCN1C(C)=O)C(=O)N[C@@H](CC(=O)O)C(=O)N[C@@H](CC(C)(C)C)C(=O)N2 (stereo partly drawn) [I-2561, Ac-PL3-Asp-Npg-B5-Asp-3COOHF-Aib-Ala-Phe-Abu-PyrS2-3Thi-BztA-[AcPpz]GlnR-NH2] | 5 nM | 7200 nM |

Further compounds by falling IC50 [1], results first:

| IC50 [1] | IC50 [2] | Compound |
| --- | --- | --- |
| 48 nM | 17000 nM | CC(=O)N[C@]1(C)CC=CCCCC2(CCCC=CCCCOC(=O)N3CC[C@@](C(=O)N[C@@H](Cc4ccccc4C(F)(F)F)C(=O)N[C@@H](Cc4csc5ccccc45)C(=O)N[C@@H](CCC(N)=O)C(N)=O)(C3)NC(=O)[C@H](CC(C)C)NC(=O)[C@H](Cc3ccccc3)NC(=O)[C@H](C)NC(=O)[C@H](C)NC(=O)[C@H](Cc3cccc(C(=O)O)c3)NC(=O)[C@H](CC(=O)O)NC2=O)NC(=O)[C@H](CC(C)(C)C)NC(=O)[C@H](CC(=O)O)NC1=O (stereo partly drawn) [I-2563, Ac-R3-Asp-Npg-B5-Asp-3COOHF-Ala-Ala-Phe-Leu-PyrS2-2F3MeF-BztA-Gln-NH2] |
| 13 nM | 2500 nM | CC(=O)NCCCC[C@@H]1NC(=O)[C@H](Cc2ccccc2)NC(=O)[C@H](C)NC(=O)[C@H](C)NC(=O)[C@H](Cc2cccc(C(=O)O)c2)NC(=O)[C@H](CC(=O)O)NC(=O)C2(CCCC=CCCCOC(=O)N3CC[C@@](C(=O)N[C@@H](Cc4ccccc4C(F)(F)F)C(=O)N[C@@H](Cc4csc5ccccc45)C(=O)N[C@@H](CCC(=O)N4CCOCC4)C(N)=O)(C3)NC1=O)CCCC=CC[C@]1(CCCN1C(C)=O)C(=O)N[C@@H](CC(=O)O)C(=O)N[C@@H](CC(C)(C)C)C(=O)N2 (stereo partly drawn) [I-2549, Ac-PL3-Asp-Npg-B5-Asp-3COOHF-Ala-Ala-Phe-AcLys-PyrS2-2F3MeF-BztA-MorphGln-NH2] |
| 8 nM | 3300 nM | CCCC[C@@H]1NC(=O)[C@H](Cc2ccccc2)NC(=O)[C@H](C)NC(=O)C(C)(C)NC(=O)[C@H](Cc2cccc(C(=O)O)c2)NC(=O)[C@H](CC(=O)O)NC(=O)C2(CCCC=CCCCOC(=O)N3CC[C@@](C(=O)N[C@@H](Cc4ccsc4)C(=O)N[C@@H](Cc4csc5ccccc45)C(=O)N[C@@H](CCC(=O)N(CCOC)CCOC)C(N)=O)(C3)NC1=O)CCCC=CC[C@]1(CCCN1C(C)=O)C(=O)N[C@@H](CC(=O)O)C(=O)N[C@@H](CC(C)(C)C)C(=O)N2 (stereo partly drawn) [I-2554, Ac-PL3-Asp-Npg-B5-Asp-3COOHF-Aib-Ala-Phe-nLeu-PyrS2-3Thi-BztA-[bismethoxyethylamine]GlnR-NH2] |
| 8 nM | 3800 nM | CC[C@@H]1NC(=O)[C@H](Cc2ccccc2)NC(=O)[C@H](C)NC(=O)C(C)(C)NC(=O)[C@H](Cc2cccc(C(=O)O)c2)NC(=O)[C@H](CC(=O)O)NC(=O)C2(CCCC=CCCCOC(=O)N3CC[C@@](C(=O)N[C@@H](Cc4ccsc4)C(=O)N[C@@H](Cc4csc5ccccc45)C(=O)N[C@@H](CCC(=O)N(CCOC)CCOC)C(N)=O)(C3)NC1=O)CCCC=CC[C@]1(CCCN1C(C)=O)C(=O)N[C@@H](CC(=O)O)C(=O)N[C@@H](CC(C)(C)C)C(=O)N2 (stereo partly drawn) [I-2559, Ac-PL3-Asp-Npg-B5-Asp-3COOHF-Aib-Ala-Phe-Abu-PyrS2-3Thi-BztA-[bismethoxyethylamine]GlnR-NH2] |
| 6 nM | 7000 nM | CCCC[C@@H]1NC(=O)[C@H](Cc2ccccc2)NC(=O)[C@H](C)NC(=O)C(C)(C)NC(=O)[C@H](Cc2cccc(C(=O)O)c2)NC(=O)[C@H](CC(=O)O)NC(=O)C2(CCCC=CCCCOC(=O)N3CC[C@@](C(=O)N[C@@H](Cc4ccsc4)C(=O)N[C@@H](Cc4csc5ccccc45)C(=O)N[C@@H](CCC(=O)N4CCN(C(C)=O)CC4)C(N)=O)(C3)NC1=O)CCCC=CC[C@]1(CCCN1C(C)=O)C(=O)N[C@@H](CC(=O)O)C(=O)N[C@@H](CC(C)(C)C)C(=O)N2 (stereo partly drawn) [I-2556, Ac-PL3-Asp-Npg-B5-Asp-3COOHF-Aib-Ala-Phe-nLeu-PyrS2-3Thi-BztA-[AcPpz]GlnR-NH2] |
